Reference: patent US20180170904A1, “PYRIDIN-3-YL ACETIC ACID DERIVATIVES AS INHIBITORS OF HUMAN IMMUNODEFICIENCY VIRUS REPLICATION” (priority 2015, published 2018)

tested on: NL-RLuc virus (recombinant NL4-3 proviral clone with Renilla Luciferase gene); experiment: Inhibition of HIV replication (NL-RLuc reporter virus in MT-2 cells); assay type: cell-based; details: MT-2 cells infected with NL-RLuc virus, 5 days of incubation, luciferase readout; read-out: Activity
Text: Inhibition of HIV replication: A recombinant NL-RLuc proviral clone was constructed in which a section of the nef gene from NL4-3 was replaced with the Renilla Luciferase gene. This virus is fully infectious and can undergo multiple cycles of replication in cell culture. In addition, the luciferous reporter provides a simple and easy method for quantitating the extent of virus growth and consequently, the antiviral activity of test compounds. The plasmid pNLRLuc contains the proviral NL-Rluc DNA cloned into pUC18 at the PvuII site. The NL-RLuc virus was prepared by transfection of 293T cells with the plasmid pNLRLuc. Transfections were performed using the LipofectAMINE PLUS kit from Invitrogen (Carlsbad, Calif.) according to the manufacturer and the virus generated was titered in MT-2 cells. For susceptibility analyses, the titrated virus was used to infect MT-2 cells in the presence of compound, and after 5 days of incubation, cells were processed and quantitated for virus growth by the amount of expressed luciferase. Assay media was RPMI 1640 supplemented with 10% heat inactivated fetal bovine serum (FBS), 100 units/ml penicillin G/100 units/ml streptomycin, 10 mM HEPES buffer pH 7.55 and 2 mM L-glutamine. The results from at least 2 experiments were used to calculate the EC50 values. Luciferase was quantitated using the Dual Luciferase kit from Promega (Madison, Wis.). Susceptibility of viruses to compounds was determined by incubation in the presence of serial dilutions of the compound. The 50% effective concentration (EC50) was calculated by using the exponential form of the median effect equation where (Fa)=1/[1+(ED50/drug conc.)^m] (Johnson V A, Byington R T. Infectivity Assay. In Techniques in HIV Research. ed. Aldovini A, Walker B D. 71-76. New York: Stockton Press.1990). Activity equal to A refers to a compound having an EC50≤100 nM, while B and C denote compounds having an EC50 between 100 nM and 1 uM (B) or >1 uM (C).

“(S)-2-(tert-Butoxy)-2-(4-(4,4-dimethylpiperidin-1-yl)-5-(3-(1-(4-fluorobenzyl)-1H-tetrazol-5-yl)phenyl)-2,6-dimethylpyridin-3-yl)acetic acid and/or (S)-2-(tert-Butoxy)-2-(4-(4,4-dimethylpiperidin-1-yl)-5-(3-(2-(4-fluorobenzyl)-2H-tetrazol-5-yl)phenyl)-2,6-dimethylpyridin-3-yl)acetic acid [Example 87]” gave an EC50 of under 0.1 µM.

same assay, conditions: Renilla, NL43, 120 h, read-out: Activity

Cc1nc(C)c([C@H](OC(C)(C)C)C(=O)O)c(N2CCC(C)(C)CC2)c1-c1ccc(NC(=O)Cc2ccc(F)cc2)cc1 [Example 72, (S)-2-(tert-Butoxy)-2-(4-(4,4-dimethylpiperidin-1-yl)-5-(4-(2-(4-fluorophenyl)acetamido)phenyl)-2,6-dimethylpyridin-3-yl)acetic acid] and Cc1nc(C)c([C@H](OC(C)(C)C)C(=O)O)c(N2CCC(C)(C)CC2)c1-c1ccc(SCCc2ccc(F)cc2)cc1 [Example 78, (S)-2-(tert-Butoxy)-2-(4-(4,4-dimethylpiperidin-1-yl)-5-(4-((4-fluorophenethyl)thio)phenyl)-2,6-dimethylpyridin-3-yl)acetic acid] cannot be ordered by EC50: under 0.1 µM for the first, under 0.1 µM for the second.

CSc1ncc(-c2c(C)nc(C)c([C@H](OC(C)(C)C)C(=O)O)c2N2CCC(C)(C)CC2)cn1 [Example 42, (S)-2-(tert-Butoxy)-2-(4-(4,4-dimethylpiperidin-1-yl)-2,6-dimethyl-5-(2-(methylthio)pyrimidin-5-yl)pyridin-3-yl)acetic acid] and Cc1nc(C)c([C@H](OC(C)(C)C)C(=O)O)c(N2CCC(C)(C)CC2)c1-c1ccc(F)c(F)c1 [Example 41, (S)-2-(tert-Butoxy)-2-(5-(3,4-difluorophenyl)-4-(4,4-dimethylpiperidin-1-yl)-2,6-dimethylpyridin-3-yl)acetic acid] cannot be ordered by EC50: under 0.1 µM for the first, under 0.1 µM for the second.

Cc1nc(C)c([C@H](OC(C)(C)C)C(=O)O)c(N2CCC(C)(C)CC2)c1-c1cc(F)c(CO)c(F)c1 [Example 34, (S)-2-(tert-Butoxy)-2-(5-(3,5-difluoro-4-(hydroxymethyl)phenyl)-4-(4,4-dimethylpiperidin-1-yl)-2,6-dimethylpyridin-3-yl)acetic acid] and Cc1nc(C)c([C@H](OC(C)(C)C)C(=O)O)c(N2CCC(C)(C)CC2)c1-c1ccc(CO)cc1 [Example 82, (S)-2-(tert-Butoxy)-2-(4-(4,4-dimethylpiperidin-1-yl)-5-(4-(hydroxymethyl)phenyl)-2,6-dimethylpyridin-3-yl)acetic acid] cannot be ordered by EC50: under 0.1 µM for the first, under 0.1 µM for the second.

First: Cc1nc(C)c([C@H](OC(C)(C)C)C(=O)O)c(N2CCC(C)(C)CC2)c1-c1ccc(C=O)cc1 [Example 83, (S)-2-(tert-Butoxy)-2-(4-(4,4-dimethylpiperidin-1-yl)-5-(4-formylphenyl)-2,6-dimethylpyridin-3-yl)acetic acid]
Second: Cc1nc(C)c([C@H](OC(C)(C)C)C(=O)O)c(N2CCC(C)(C)CC2)c1-c1ccc(C(N)=O)cc1 [Example 25, (S)-2-(tert-Butoxy)-2-(5-(4-carbamoylphenyl)-4-(4,4-dimethylpiperidin-1-yl)-2,6-dimethylpyridin-3-yl)acetic acid]
The EC50 of the first is lower: under 0.1 µM for the first, 0.1 to 1 µM for the second.

Cc1nc(C)c([C@H](OC(C)(C)C)C(=O)O)c(N2CCC(C)(C)CC2)c1-c1ccc(-c2nnn[nH]2)cc1 [Example 46, (S)-2-(5-(4-(1H-Tetrazol-5-yl)phenyl)-4-(4,4-dimethylpiperidin-1-yl)-2,6-dimethylpyridin-3-yl)-2-(tert-butoxy)acetic acid] and Cc1nc(C)c([C@H](OC(C)(C)C)C(=O)O)c(N2CCC(C)(C)CC2)c1-c1cccc(-c2nnn[nH]2)c1 [Example 47, (S)-2-(5-(3-(1H-Tetrazol-5-yl)phenyl)-4-(4,4-dimethylpiperidin-1-yl)-2,6-dimethylpyridin-3-yl)-2-(tert-butoxy)acetic acid] cannot be ordered by EC50: over 1 µM for the first, over 1 µM for the second.

Cc1nc(C)c([C@H](OC(C)(C)C)C(=O)O)c(N2CCC(C)(C)CC2)c1-c1ccc(-c2ncc(-c3ccc(F)cc3)s2)cc1 [Example 6, (S)-2-(tert-Butoxy)-2-(4-(4,4-dimethylpiperidin-1-yl)-5-(4-(5-(4-fluorophenyl)thiazol-2-yl)phenyl)-2,6-dimethylpyridin-3-yl)acetic acid] and Cc1nc(C)c([C@H](OC(C)(C)C)C(=O)O)c(N2CCC(C)(C)CC2)c1-c1ccc(-c2ncc(Cc3ccc(F)cc3)s2)cc1 [Example 3, (S)-2-(tert-Butoxy)-2-(4-(4,4-dimethylpiperidin-1-yl)-5-(4-(5-(4-fluorobenzyl)thiazol-2-yl)phenyl)-2,6-dimethylpyridin-3-yl)acetic acid] cannot be ordered by EC50: under 0.1 µM for the first, under 0.1 µM for the second.

Cc1nc(C)c([C@H](OC(C)(C)C)C(=O)O)c(N2CCC(C3CC3)C2)c1-c1ccc(C(=O)NCc2ccccc2)cc1 (stereo partly drawn) [Example 55, (2S)-2-(5-(4-(Benzylcarbamoyl)phenyl)-4-(3-cyclopropylpyrrolidin-1-yl)-2,6-dimethylpyridin-3-yl)-2-(tert-butoxy)acetic acid] and Cc1nc(C)c([C@H](OC(C)(C)C)C(=O)O)c(N2CCC(C)(C)CC2)c1-c1ccc(Cc2ccccc2)cc1 [Example 15, (S)-2-(5-(4-Benzylphenyl)-4-(4,4-dimethylpiperidin-1-yl)-2,6-dimethylpyridin-3-yl)-2-(tert-butoxy)acetic acid] cannot be ordered by EC50: under 0.1 µM for the first, under 0.1 µM for the second.

Cc1nc(C)c([C@H](OC(C)(C)C)C(=O)O)c(N2CCC(C)(C)CC2)c1-c1ccc(C(=O)NC(c2ccccc2)C(F)(F)F)cc1 (stereo partly drawn) [Example 88, (2S)-2-(tert-Butoxy)-2-(4-(4,4-dimethylpiperidin-1-yl)-2,6-dimethyl-5-(4-((2,2,2-trifluoro-1-phenylethyl)carbamoyl)phenyl)pyridin-3-yl)acetic acid] and COc1cccc(-c2ccc(-c3c(C)nc(C)c([C@H](OC(C)(C)C)C(=O)O)c3N3CCC(C)(C)CC3)cc2)c1 [Example 21, (S)-2-(tert-Butoxy)-2-(4-(4,4-dimethylpiperidin-1-yl)-5-(3′-methoxy-[1,1′-biphenyl]-4-yl)-2,6-dimethylpyridin-3-yl)acetic acid] cannot be ordered by EC50: under 0.1 µM for the first, under 0.1 µM for the second.

First: Cc1nc(C)c([C@H](OC(C)(C)C)C(=O)O)c(N2CCC(C)(C)CC2)c1-c1ccc(C2(C#N)CC2)cc1 [Example 27, (S)-2-(tert-Butoxy)-2-(5-(4-(1-cyanocyclopropyl)phenyl)-4-(4,4-dimethylpiperidin-1-yl)-2,6-dimethylpyridin-3-yl)acetic acid]
Second: Cc1nc(C)c([C@H](OC(C)(C)C)C(=O)O)c(N2CCC(C)(C)CC2)c1-c1ccc(CC#N)cc1 [Example 48, (S)-2-(tert-Butoxy)-2-(5-(4-(cyanomethyl)phenyl)-4-(4,4-dimethylpiperidin-1-yl)-2,6-dimethylpyridin-3-yl)acetic acid]
The EC50 of the first is lower: under 0.1 µM for the first, 0.1 to 1 µM for the second. The first is the more potent here.

Cc1ccc(-c2c(C)nc(C)c([C@H](OC(C)(C)C)C(=O)O)c2N2CCC(C)(C)CC2)cc1C [Example 44, (S)-2-(tert-Butoxy)-2-(5-(3,4-dimethylphenyl)-4-(4,4-dimethylpiperidin-1-yl)-2,6-dimethylpyridin-3-yl)acetic acid] and Cc1nc(C)c([C@H](OC(C)(C)C)C(=O)O)c(N2CCC(C)(C)CC2)c1-c1ccc(C(C)(C)O)cc1 [Example 38, (S)-2-(tert-Butoxy)-2-(4-(4,4-dimethylpiperidin-1-yl)-5-(4-(2-hydroxypropan-2-yl)phenyl)-2,6-dimethylpyridin-3-yl)acetic acid] cannot be ordered by EC50: under 0.1 µM for the first, under 0.1 µM for the second.

COc1ccc(-c2ccc(-c3c(C)nc(C)c([C@H](OC(C)(C)C)C(=O)O)c3N3CCC(C)(C)CC3)cc2)cc1 [Example 16, (S)-2-(tert-Butoxy)-2-(4-(4,4-dimethylpiperidin-1-yl)-5-(4′-methoxy-[1,1′-biphenyl]-4-yl)-2,6-dimethylpyridin-3-yl)acetic acid] and Cc1nc(C)c([C@H](OC(C)(C)C)C(=O)O)c(N2CCC(C)(C)CC2)c1-c1ccc(-c2ccc(OC(C)C)cc2)cc1 [Example 10, (S)-2-(tert-Butoxy)-2-(4-(4,4-dimethylpiperidin-1-yl)-5-(4′-isopropoxy-[1,1′-biphenyl]-4-yl)-2,6-dimethylpyridin-3-yl)acetic acid] cannot be ordered by EC50: under 0.1 µM for the first, under 0.1 µM for the second.

First: CCc1ccc(-c2ccc(-c3c(C)nc(C)c([C@H](OC(C)(C)C)C(=O)O)c3N3CCC(C)(C)CC3)cc2)cc1 [Example 12, (S)-2-(tert-Butoxy)-2-(4-(4,4-dimethylpiperidin-1-yl)-5-(4′-ethyl-[1,1′-biphenyl]-4-yl)-2,6-dimethylpyridin-3-yl)acetic acid]
Second: Cc1nc(C)c([C@H](OC(C)(C)C)C(=O)O)c(N2CCC(C)(C)CC2)c1-c1ccc(CC(C)C)cc1 [Example 20, (S)-2-(tert-Butoxy)-2-(4-(4,4-dimethylpiperidin-1-yl)-5-(4-isobutylphenyl)-2,6-dimethylpyridin-3-yl)acetic acid]
The EC50 of the first is higher: 0.1 to 1 µM for the first, under 0.1 µM for the second. The second is the more potent here.

same assay, conditions: Renilla, NL43, 120 h, read-out: EC50 μM

Going from Cc1nc(C)c([C@H](OC(C)(C)C)C(=O)O)c(N2CCC(C3CC3)C2)c1-c1ccc(C(=O)NCc2ccccc2)cc1 (stereo partly drawn) [Example 55, (2S)-2-(5-(4-(Benzylcarbamoyl)phenyl)-4-(3-cyclopropylpyrrolidin-1-yl)-2,6-dimethylpyridin-3-yl)-2-(tert-butoxy)acetic acid] to Cc1nc(C)c([C@H](OC(C)(C)C)C(=O)O)c(N2CCC(C)(C)CC2)c1-c1ccc(SCCc2ccc(F)cc2)cc1 [Example 78, (S)-2-(tert-Butoxy)-2-(4-(4,4-dimethylpiperidin-1-yl)-5-(4-((4-fluorophenethyl)thio)phenyl)-2,6-dimethylpyridin-3-yl)acetic acid], the EC50 falls from 0.053 µM to 0.016 µM (3.3-fold).

Cc1nc(C)c([C@H](OC(C)(C)C)C(=O)O)c(N2CCC(C)(C)CC2)c1-c1ccc(CC#N)cc1 [Example 48, (S)-2-(tert-Butoxy)-2-(5-(4-(cyanomethyl)phenyl)-4-(4,4-dimethylpiperidin-1-yl)-2,6-dimethylpyridin-3-yl)acetic acid] and Cc1nc(C)c([C@H](OC(C)(C)C)C(=O)O)c(N2CCC(C)(C)CC2)c1-c1ccc(CC(C)C)cc1 [Example 20, (S)-2-(tert-Butoxy)-2-(4-(4,4-dimethylpiperidin-1-yl)-5-(4-isobutylphenyl)-2,6-dimethylpyridin-3-yl)acetic acid] are within 1.5-fold of each other in EC50: 0.109 µM for the first, 0.161 µM for the second.
